# Read-outs that look alike come from different tables or passages of the source.
# Tests used:
# Sprague-Dawley rats [1] = experiment: Allopurinol intervention or oxonic acid withdrawal in hyperuricemic rats: blood pressure (Example 3); type: in vivo, rat; details: allopurinol added at 7 weeks, OA/LSD continued
# Description: (§1) Rats were placed on the low sodium diet with oxonic acid for 7 weeks, and then were matched based on uric acid level and blood pressure in various groups to either receive allopurinol, have the oxonic acid withdrawn from the diet, or continue the oxonic acid/low salt diet. A control group of six rats were placed on the lowsodium diet alone for 11 weeks. All of these rats were sacrificed at week 11.
# (§2) Am J Physiol 268:F1 164-76, 1995].
# (§3) Am J Clin Pathol 1957; 28:152.]. Serum blood urea nitrogen was measured by a standard kit (Sigma, St Louis, Mo.).
# Sprague-Dawley rats [2] = experiment: Renal findings at 7 weeks: immunohistochemistry and BUN (Example 2); type: in vivo, rat; details: low NaCl diet
# Protocol: (§4) Rats were placed on a low sodium diet (NaCl, 0.125%) with or without 2% oxonic acid for 7 weeks. A third group were administered allopurinol in the drinking water (150 mg/L) with weekly adjustments of the dose depending on the uric acid level.
# as §3
# (§5) Renal biopsies were fixed in Methyl-Carnoy's, 10% formalin or 100% ethanol and embedded in paraffin. The presence of uric acid crystals was evaluated by staining 4-μm ethanol-fixed sections with de Galantha and modified Von Kossa stains. Kidney tissue from rats with acute uric acid nephropathy, induced with oxonic acid and uric acid administration was used as a positive control [Stavric, B., Johnson, W. J., and Grice, H. C., Uric acid nephropathy: An experimental model, Proc. Soc. Exp. Biol. Med. 130: 512-16 (1969).]. Light microscopy was performed in 4-μm sections of Methyl-Carnoy's fixed tissue stained with periodic acid Schiff (PAS) reagent or with hematoxylin and eosin.
# (§6) Methyl-Carnoy's fixed tissue sections were analyzed by indirect immunoperoxidase [Lombardi, D., Gordon , K. L., Polinsky, P., Suga, S., Schwartz, S. M., and Johnson, R. J. Salt sensitive hypertension develops after transient exposure to angiotensin II. Hypertension 33:1013-1019, 1999] staining with the following primary antibodies: OP199, a goat polyclonal antibody against osteopontin (OPN)(gift of C. Giachelli, Univ of Wash., Seattle); ED-1, a monoclonal antibody to rat monocytes and macrophages (Serotec); goat antihuman type III collagen (Southern Biotechnology Associates Inc, Birminghan Ala.); and anti-renin, a mouse antibody to human renin (Sanofi Recherche, Montpellier, France). Sections were incubated with a secondary antibody followed by horseradish peroxidase-conjugated avidin D (Vector Laboratories, Burlingame, Calif.), diaminobenzidine (Sigma) with or without nickel chloride as a chromogen, and counsterstained with methyl green.
# (§7) NOS1 was detected on formalin fixed tissue sections with a rabbit anti-rat neuronal nitric oxide synthase (Transduction Laboratories, Lexington, Ky.), followed by a biotinylated secondary antibody, diaminobenzidine with nickel chloride and counterstained with nuclear fast red.
# (§8) All quantification was performed blinded. The tubular expression of osteopontin (OPN), which is a sensitive marker of tubulointerstitial injury, was calculated as the percent of renal cortex occupied by OPN-positive tubules [Lombardi, D., Gordon, K. L., Polinsky, P., Suga, S., Schwartz, S. M., and Johnson, R. J. Salt sensitive hypertension develops after transient exposure to angiotensin II. Hypertension 33:1013-1019, 1999]. Utilizing computer-assisted image analysis software (Optimas V6.2, Media Cybernetics, Silver Springs, Md.) and digitized images, the percent of area occupied by OPN positive tubules per 4 mm^2 field at a magnification of 50× was measured and the mean percent area calculated for each biopsy. The interstitial deposition of collagen type III was calculated as the % of renal cortex occupied by collagen III, noted by immunostaining, by computer image analysis. The mean number of interstitial macrophages (ED-1+cells) in each biopsy was calculated in a blinded manner by counting the total number of positive interstitial cortical cells in 20 sequentially selected 0.25 mm^2 grids at 200× magnification. Renin expression was quantified by the number of glomeruli with positive staining for juxtaglomerular renin using a minimum of 100 glomeruli in each biopsy as previously described [Eng, E., et al., Renal proliferation and phenotypic changes in rats with two-kidney, one-clip Goldblatt hypertension. Am J Hypertens 7:177-185 (1994)]; this has been shown previously to correlate with intrarenal renin content[Eng, E., et al., Renal proliferation and phenotypic changes in rats with two-kidney, one-clip Goldblatt hypertension. Am J Hypertens 7:177-185 (1994)]. […]
# Sprague-Dawley rats [3] = experiment: Renal findings at 11 weeks: immunohistochemistry and BUN (Example 3); type: in vivo, rat; details: low NaCl diet, allopurinol added at 7 weeks
# Protocol: as §1, §3, §5, §6, §7
# as §8, with “hypertension.” for “hypertension. Am J Hypertens 7:177-185 (1994)]; this has been shown previously to correlate with intrarenal renin content[Eng, E., et al., Renal proliferation and phenotypic changes in rats with two-kidney, one-clip Goldblatt hypertension. Am J Hypertens 7:177-185 (1994)].”
# Sprague-Dawley rats [4] = experiment: Oxonic acid on low sodium diet with or without allopurinol: blood pressure, uric acid (Example 2); type: in vivo, rat; details: allopurinol from the initiation of the oxonic acid diet, low salt
# Protocol: All studies utilized adult male Sprague-Dawley rats (Simonsen Laboratories, Gilroy Calif.)(200-250 g).
# as §4
# Am J Physiol 268:F1164-76, 1995].
# as §3
# [5] = cited from earlier work
# [6] = cited from earlier work; remark: listed apart in the source
# Sprague-Dawley rats [7] = experiment: Enalapril or L-Arginine in hyperuricemic rats on low salt diet: blood pressure (Example 4); type: in vivo, rat; details: for systolic blood pressure lower than the hyperuricemic controls: at 7 weeks, enalapril 1 mg/kg/d or L-Arginine 1% in drinking water, p<0.05; for effect on systolic blood pressure of hyperuricemic rats: treatment from the outset, 7 weeks
# Protocol: Rats were placed on either low salt diet, low salt diet with 2% oxonic acid, low salt diet with oxonic acid and enalapril (1 mg/kg/d in drinking water), or low salt diet with oxonic acid and L-Arginine (1% in drinking water).
# as §2
structure (smiles),measurement,setting,value
"Oc1ncnc2[nH]ncc12 [Allopurinol, allopurinol]","blood pressure and serum uric acid in hypertensive, hyperuricemic rats",Sprague-Dawley rats [1],reduction in the blood pressure in association with a fall in serum uric acid values
same,Renin,Sprague-Dawley rats [2]; control 39.6 ± 2.0,44.1 ± 1.6 % positive JGA
same,NOS-1,Sprague-Dawley rats [2]; control 147.2 ± 12.4,97.4 ± 5.6 positive cells/100 glomeruli
same,OPN,"Sprague-Dawley rats [2]; mean±SE, control 0.9 ± 0.06",1.3 ± 0.15 % increase
same,Type III collagen,"Sprague-Dawley rats [2]; mean±SE, control 5.4 ± 0.3",6.2 ± 0.6%
same,BUN,"Sprague-Dawley rats [2]; mean±SE, control 14.4 ± 1.2",15.2 ± 2.3 mg/dL
same,ED-1 (macrophages),"Sprague-Dawley rats [2]; mean±SE, control 18.3 ± 1.3",20.5 ± 0.6 cells/mm2
same,OPN,Sprague-Dawley rats [3]; control 0.7 ± 0.08,0.97 ± 0.03 % increase
same,Type III collagen,Sprague-Dawley rats [3]; control 7.2 ± 0.6,9.6 ± 0.3 %
same,BUN,Sprague-Dawley rats [3]; control 16.6 ± 0.9,17.7 ± 0.5 mg/dL
same,ED-1 (macrophages),Sprague-Dawley rats [3]; control 27.8 ± 1.4,25.2 ± 2.6 cells/mm2
same,Renin,Sprague-Dawley rats [3]; control 41.0 ± 1.9,44.2 ± 1.3 % positive JGA
same,NOS-1,Sprague-Dawley rats [3]; control 104.4 ± 11.5,98.6 ± 5.1 positive cells/100 glomeruli
same,development of hyperuricemia and hypertension,Sprague-Dawley rats [4],prevented
"CCCCc1nc(Cl)c(CO)n1Cc1ccc(-c2ccccc2-c2nn[nH]n2)cc1 [Compound No. 9, losartan potassium]",uric acid excretion in urine (Concentration of Uric Acid),"[5]; 25 mg/man oral, in hunger, 4-8 hr",32.4 ± 14.7 mg/h
same,uric acid excretion in urine (Concentration of Uric Acid),"[5]; 25 mg/man oral, in hunger, 8-12 hr",28.7 ± 13.6 mg/h
same,uric acid excretion in urine (Concentration of Uric Acid),"[5]; 25 mg/man oral, in hunger, 12-24 hr",19.7 ± 9.9 mg/h
same,uric acid excretion in urine (Concentration of Uric Acid),"[5]; 25 mg/man oral, in hunger, 24-40 hr",33.2 ± 21.9 mg/h
same,uric acid excretion in urine (Concentration of Uric Acid),"[5]; 50 mg/man oral, in hunger, 0-4 hr",52.8 ± 4.3 mg/h
same,uric acid excretion in urine (Concentration of Uric Acid),"[5]; 50 mg/man oral, in hunger, 8-12 hr",39.1 ± 4.4 mg/h
same,uric acid excretion in urine (Concentration of Uric Acid),"[5]; 50 mg/man oral, in hunger, 12-24 hr",22.2 ± 3.8 mg/h
same,uric acid excretion in urine (Concentration of Uric Acid),"[5]; 50 mg/man oral, in hunger, 24-40 hr",26.6 ± 5.4 mg/h
same,uric acid excretion in urine (Concentration of Uric Acid),"[5]; 100 mg/man oral, after meal, 0-4 hr",75.9 ± 19.0 mg/h
same,uric acid excretion in urine (Concentration of Uric Acid),"[5]; 100 mg/man oral, after meal, 4-8 hr",59.0 ± 3.8 mg/h
same,uric acid excretion in urine (Concentration of Uric Acid),"[5]; 100 mg/man oral, after meal, 8-12 hr",31.8 ± 4.5 mg/h
same,uric acid excretion in urine (Concentration of Uric Acid),"[5]; 100 mg/man oral, after meal, 12-24 hr",19.7 ± 2.5 mg/h
same,uric acid excretion in urine (Concentration of Uric Acid),"[5]; 100 mg/man oral, after meal, 24-40 hr",29.5 ± 4.1 mg/h
same,uric acid excretion in urine (Concentration of Uric Acid),"[5]; 100 mg/man oral, in hunger, 0-4 hr",81.2 ± 15.7 mg/h
same,uric acid excretion in urine (Concentration of Uric Acid),"[5]; 100 mg/man oral, in hunger, 4-8 hr",36.4 ± 7.7 mg/h
same,uric acid excretion in urine (Concentration of Uric Acid),"[5]; 100 mg/man oral, in hunger, 8-12 hr",30.1 ± 6.8 mg/h
same,uric acid excretion in urine (Concentration of Uric Acid),"[5]; 100 mg/man oral, in hunger, 12-24 hr",19.2 ± 4.2 mg/h
same,uric acid excretion in urine (Concentration of Uric Acid),"[5]; 100 mg/man oral, in hunger, 24-40 hr",28.0 ± 7.2 mg/h
same,uric acid excretion in urine (Concentration of Uric Acid),"[5]; 200 mg/man oral, in hunger, 0-4 hr",78.7 ± 15.3 mg/h
same,uric acid excretion in urine (Concentration of Uric Acid),"[5]; 200 mg/man oral, in hunger, 4-8 hr",25.4 ± 6.6 mg/h
same,uric acid excretion in urine (Concentration of Uric Acid),"[5]; 200 mg/man oral, in hunger, 8-12 hr",19.6 ± 5.2 mg/h
same,uric acid excretion in urine (Concentration of Uric Acid),"[5]; 200 mg/man oral, in hunger, 12-24 hr",13.4 ± 2.3 mg/h
same,uric acid excretion in urine (Concentration of Uric Acid),"[5]; 200 mg/man oral, in hunger, 24-40 hr",21.0 ± 3.0 mg/h
same,Concentration of Uric Acid in serum,"[6]; 25 mg/man oral, in hunger, 0 hr (when administered)",5.2 ± 0.5 mg/dL
same,Concentration of Uric Acid in serum,"[6]; 25 mg/man oral, in hunger, 4 hr",4.8 ± 0.6 mg/dL
same,Concentration of Uric Acid in serum,"[6]; 25 mg/man oral, in hunger, 24 hr",4.6 ± 0.6 mg/dL
same,Concentration of Uric Acid in serum,"[6]; 50 mg/man oral, in hunger, 0 hr (when administered)",6.1 ± 1.4 mg/dL
same,Concentration of Uric Acid in serum,"[6]; 50 mg/man oral, in hunger, 4 hr",5.3 ± 1.3 mg/dL
same,Concentration of Uric Acid in serum,"[6]; 50 mg/man oral, in hunger, 24 hr",5.6 ± 1.4 mg/dL
same,Concentration of Uric Acid in serum,"[6]; 100 mg/man oral, after meal, 4 hr",4.9 ± 1.0 mg/h
same,Concentration of Uric Acid in serum,"[6]; 100 mg/man oral, in hunger, 0 hr (when administered)",5.9 ± 0.9 mg/dL
same,Concentration of Uric Acid in serum,"[6]; 100 mg/man oral, in hunger, 4 hr",4.6 ± 0.7 mg/dL
same,Concentration of Uric Acid in serum,"[6]; 100 mg/man oral, in hunger, 24 hr",5.2 ± 0.8 mg/dL
same,Concentration of Uric Acid in serum,"[6]; 200 mg/man oral, in hunger, 0 hr (when administered)",5.6 ± 0.7 mg/dL
same,Concentration of Uric Acid in serum,"[6]; 200 mg/man oral, in hunger, 4 hr",4.3 ± 0.9 mg/dL
same,Concentration of Uric Acid in serum,"[6]; 200 mg/man oral, in hunger, 24 hr",5.0 ± 0.9 mg/dL
N=C(N)NCCC[C@H](N)C(=O)O [L-Arginine],systolic blood pressure lower than the hyperuricemic controls,Sprague-Dawley rats [7],25 mm Hg
same,effect on systolic blood pressure of hyperuricemic rats,Sprague-Dawley rats [7],largely prevented this increase
CCOC(=O)[C@H](CCc1ccccc1)N[C@@H](C)C(=O)N1CCC[C@H]1C(=O)O [enalapril],systolic blood pressure lower than the hyperuricemic controls,Sprague-Dawley rats [7],25 mm Hg
same,effect on systolic blood pressure of hyperuricemic rats,Sprague-Dawley rats [7],lowest systolic blood pressures
